Laboratory results published in patent US9682114B2, “Plant extracts of Ptaeroxylon obliquum nand compounds having antimicrobial and antihelminthic activity” (UNIVERSITY OF PRETORIA, priority 2013, dated 2017).
In brackets after ≈: the same amount, converted by molar mass. Read-outs that look alike come from different tables or passages of the source.

What was measured:
in vitro = settings: LC50 (cytotoxicity)
Description: The MTT assay was used to determine the cytotoxicity of dried acetone extracts of H. caffrum (leaves); P. obliquum (leaves); R. melanophloeos (leaves) and S. birrea (stem bark) reconstituted in dimethyl sulphoxide (DMSO) against Mouse fibroblast cells (obtained from the Department of Plant Science, Faculty of Natural and Agricultural Sciences, University of Pretoria, South Africa).
MTT (yellow) is reduced into a formazan (purple) by viable cells. The colour intensity of the formazan produced, which is directly proportional to the number of viable cells, is measured using a spectrophotometer (Mosmann, 1983; Shai, 2007).
Cells were maintained in minimal essential medium (MEM) (Highveld Biological, South Africa) supplemented with 0.1% gentamicin (Virbac) and 5% foetal calf serum (Adcock-lngram). […] Dried crude plant extracts (100 mg) were reconstituted in 1 ml of DMSO and serial 10-fold dilutions of each extract were prepared in growth medium. The growth medium on sub-confluent monolayer cells grown overnight in microtitre plates was removed and cells were exposed to 200 μl of the extracts at different concentrations and incubated again at 37° C. for 5 days. Viability of cells was determined using the tetrazolium-based colorimetric assay (MTT assay) described by Mossmann (1983). Before the addition of MTT, the extract-containing medium on the cells was replaced with fresh culture medium to exclude reduction of the tetrazolium compound by plant extracts. The assay is based on mitochondrial dehydrogenase activity which is assessed by the reductive cleavage of the tetrazolium salt MTT [3-(4.5-dimethylthiazolyl)2.5-diphenyltetrazolium bromide] due to the succinic dehydrogenase present in living cells to yield a purple formazan dye. The cells were incubated with 30 μl of 5 mg/ml MTT in phosphate-buffered saline (PBS) for four hours. Thereafter, medium was removed and cells washed with PBS. DMSO (50 μl) was added to the cells and absorbance was measured using a Versamax microplate reader at 570 nm. Berberine chloride (Sigma) was used as a positive control, wells containing only cells acted as the negative control and a solvent control was also included. The percentage cell viability following the addition of varying concentrations of the extracts in relation to controls was calculated. The LC50 values were calculated (using SoftMax Pro4.8 Software) as the concentration of plant extracts resulting in 50 percent reduction of absorbance compared to untreated cells. Tests were carried out in quadruplicate and each experiment was repeated three times.

[1] = system: Candida albicans standard strain (ATCC 10231) and clinical isolates; test: Broth micro-dilution assay, minimal inhibitory concentration (MIC); assay type: cell-based
[2] = system: Candida albicans standard strain (ATCC 10231) and clinical isolates; test: Minimal fungicidal concentration (MFC) assay; assay type: cell-based; settings: for Subcidal concentration: concentration slightly below the MFC; for MFC: mean value
Description: Minimal Fungicidal Concentration Determination
The minimal fungicidal concentration (MFC) values were determined as the lowest concentration of the extract that inhibited 100 percent growth of C. albicans standard strain (ATCC 10231) and clinical isolates.
Minimal Fungicidal Concentration Assay
The assay was initiated by pouring fresh sterile water aliquots (100 μl) into the wells of a microtitre plate. […] 50 μl of a 0.2 mg/ml aqueous solution of INT (Sigma) was added to each well. These suspensions were re-incubated at 35° C. for 24 h.

[3] = system: Candida albicans standard strain (ATCC 10231) and clinical isolates; test: Re-inoculation and re-incubation of MIC wells, cidal/static effects; assay type: cell-based; settings: for Growth after re-inoculation and re-incubation: 35° C. for 24 h
[4] = system: adhesion of C. albicans to human buccal epithelial cells; test: Adhesion assay of C. albicans to human buccal epithelial cells (HBEC); assay type: cell-based, Candida albicans / human; settings: 1-h exposure
Description: Preparation of Yeast and Buccal Epithelial Cells
For preparation of yeast and buccal epithelial cells the methods of Taweechaisupapong et al., 2005 were used with some modification.
C. albicans standard strain (ATCC 10231) and clinical isolates were maintained on Sabouraud-dextrose agar and grown in the yeast phase in Sabouraud-dextrose broth for this study. The organisms were washed three times in normal saline (NSS) by centrifugation at 5000 rpm for 10 minutes and finally suspended in NSS to 4×10^7 cells/ml (MacFarlane standard 1).
Human buccal epithelial cells (HBEC) were collected from healthy individual subjects by gently scraping the cheek mucosa with a sterile wooden spatula. To minimize individual variations, HBEC from the twenty healthy individuals were pooled in 10 ml of sterile NSS (Sandin et al., 1987). The pooled HBEC suspension was washed three times in NSS by centrifugation at 5000 rpm for 10 minutes to eliminate debris and loosely attached micro-organisms. Washed epithelial cells were confirmed to have no attached yeast before the adherence test. The HBEC was then re-suspended in NSS to a concentration of 9×10^8 cells/ml (by haemocytometer) and used immediately for the adhesion assay. The cells were collected at the same time of day on each occasion to minimize any possible effect of diurnal variations of HBEC on yeast adherence.
Adhesion of C. albicans standard strain (ATCC 10231) and clinical isolates to HBEC was determined as follows: 0.2 ml of P. obliquum acetone leaf extract was serially two-fold diluted with normal saline (NSS) in tubes. Tubes containing 0.2 ml of amphotericin B and NSS served as positive and negative controls, respectively. 0.1 ml of HBEC and 0.1 ml of the yeast suspension prepared as described previously were added to each tube, mixed gently and incubated at 37° C. for 1 hour with gentle agitation. The suspension was then diluted in 1 ml of sterile NSS.
The cells were filtered through a 12 μm pore size polycarbonate filter (Millipore), and washed twice with 15 ml of sterile NSS to remove unattached fungi. Each filter was carefully removed with forceps and placed on a glass slide with the HBEC against the glass surface. After 30 s, the filter was gently removed; leaving the HBEC adhered to the glass slide. The slides were air-dried, fixed with methanol and stained with Gram's dye. The number of yeast cells adhering to 100 HBEC was determined by counting in a light microscopy (Nikon Trans microscope) at ×400 magnification and photographed with a Nixon digital camera DXM 1200 F.
The adhesion assay is a modification of a method previously described by Kimura and Pearsall (1978) and by Taweechaisupapong et al. (2005).
The numbers of fungi adhering per 100 human buccal epithelial cells were counted and the percentage reduction was determined as follows: crude plant extract concentration divided by the control (yeast+HBEC)×100 minus 100=% reduction.

Candida albicans = settings: C. albicans; cited from earlier work
Enterococcus feacalis = settings: cited from earlier work
[5] = system: S. aureus, Salmonella typhi, Vibrio cholera, Escherichia coli, Shigella spp.; settings: cited from earlier work
Sporothrix schenckii = settings: cited from earlier work
Microsporum canis = settings: cited from earlier work
[6] = system: monkey kidney (Vero) cells; settings: cited from earlier work
[7] = C. albicans 1051604, Amphotericin B 0.6 mg/ml
[8] = C. albicans ATCC 10231, Amphotericin B 0.11 mg/ml
[9] = C. albicans M0824, Amphotericin B 0.6 mg/ml
[10] = Candida albicans, C. albicans ATCC 10231, mean value, read-out: MIC

SMILES: COc1ccc2cc3[n+](cc2c1OC)CCc1cc2c(cc1-3)OCO2 [Berberine, Berberine chloride, reference compound]
- CC50 at 5 days (in vitro; mouse): 9.04 µg/mL

SMILES: C[C@@H]1[C@H](O)[C@@H](C)/C=C/C=C/C=C/C=C/C=C/C=C/C=C/[C@H](O[C@@H]2O[C@H](C)[C@@H](O)[C@H](N)[C@@H]2O)C[C@@H]2O[C@](O)(C[C@@H](O)C[C@@H](O)[C@H](O)CC[C@@H](O)C[C@@H](O)CC(=O)O[C@H]1C)C[C@H](O)[C@H]2C(=O)O [Amphotericin B, reference compound]
- MIC ([1]; 12 h incubation, C. albicans 1051255): 30 µg/mL (≈ 32.5 µM)
- MIC ([1]; 12 h incubation, C. albicans 1051604): 60 µg/mL (≈ 64.9 µM)
- MIC ([1]; 12 h incubation, C. albicans 1051608): 110 µg/mL (≈ 119 µM)
- MIC ([1]; 12 h incubation, C. albicans ATCC 10231): 110 µg/mL (≈ 119 µM)
- MIC ([1]; 12 h incubation, C. albicans M0824): 30 µg/mL (≈ 32.5 µM)
- MIC ([1]; 12 h incubation, C. albicans M0825): 30 µg/mL (≈ 32.5 µM)
- MIC ([1]; 12 h incubation, C. albicans M0826): 60 µg/mL (≈ 64.9 µM)
- MIC ([1]; 24 h incubation, C. albicans 1051255): 230 µg/mL (≈ 249 µM)
- MIC ([1]; 24 h incubation, C. albicans 1051604): 60 µg/mL (≈ 64.9 µM)
- MIC ([1]; 24 h incubation, C. albicans 1051608): 110 µg/mL (≈ 119 µM)
- MIC ([1]; 24 h incubation, C. albicans ATCC 10231): 110 µg/mL (≈ 119 µM)
- MIC ([1]; 24 h incubation, C. albicans M0824): 110 µg/mL (≈ 119 µM)
- MIC ([1]; 24 h incubation, C. albicans M0825): 60 µg/mL (≈ 64.9 µM)
- MIC ([1]; 24 h incubation, C. albicans M0826): 110 µg/mL (≈ 119 µM)
- MIC ([1]; C. albicans ATCC 10231, mean value): 110 µg/mL (≈ 119 µM)
- MIC ([1]; C. albicans clinical isolate 1051255, mean value): 30 µg/mL (≈ 32.5 µM)
- MIC ([1]; C. albicans clinical isolate 1051604, mean value): 60 µg/mL (≈ 64.9 µM)
- MIC ([1]; C. albicans clinical isolate 1051608, mean value): 110 µg/mL (≈ 119 µM)
- MIC ([1]; C. albicans clinical isolate M0824, mean value): 30 µg/mL (≈ 32.5 µM)
- MIC ([1]; C. albicans clinical isolate M0825, mean value): 30 µg/mL (≈ 32.5 µM)
- MIC ([1]; C. albicans clinical isolate M0826, mean value): 60 µg/mL (≈ 64.9 µM)
- Subcidal concentration ([2]; C. albicans 1051604): 0.06
- Subcidal concentration ([2]; C. albicans ATCC 10231): 0.11
- MFC ([2]; C. albicans ATCC 10231): 110 µg/mL (≈ 119 µM)
- Subcidal concentration ([2]; C. albicans M0824): 0.06
- MFC ([2]; C. albicans clinical isolate 1051255): 230 µg/mL (≈ 249 µM)
- MFC ([2]; C. albicans clinical isolate 1051604): 60 µg/mL (≈ 64.9 µM)
- MFC ([2]; C. albicans clinical isolate 1051608): 110 µg/mL (≈ 119 µM)
- MFC ([2]; C. albicans clinical isolate M0824): 110 µg/mL (≈ 119 µM)
- MFC ([2]; C. albicans clinical isolate M0825): 60 µg/mL (≈ 64.9 µM)
- MFC ([2]; C. albicans clinical isolate M0826): 110 µg/mL (≈ 119 µM)
- Cidal/static effects ([3]; C. albicans 1051255): static
- Growth after re-inoculation and re-incubation ([3]; C. albicans 1051255): yes
- Cidal/static effects ([3]; C. albicans M0824): static
- Growth after re-inoculation and re-incubation ([3]; C. albicans M0824): yes
- Number of yeast per 100 HBEC [4, 7]: 10
- Reduction in adherence % [4, 7]: 95.05%
- Number of yeast cells per 100 HBEC [4, 8]: 109
- Reduction in adherence % [4, 8]: 38.42%
- Number of yeast per 100 HBEC [4, 9]: 12
- Reduction in adherence % [4, 9]: 93.41%

SMILES: C=C(C)[C@@H]1CC[C@]2(C)CC[C@]3(C)[C@H](CC[C@@H]4[C@@]5(C)CC[C@H](O)C(C)(C)[C@@H]5CC[C@]43C)[C@@H]12 [Compound 1.1, Lupeol]
- MIC [1, 10]: 4 µg/mL (≈ 9.37 µM)
- MIC (Shai et al., 2008) (Candida albicans): 250 µg/mL (≈ 586 µM)
- MIC (Shai et al., 2008) (Enterococcus feacalis): 63 µg/mL (≈ 148 µM)
- MIC (Mathabe et al., 2008) [5]: > 200 µg/mL
- MIC (Shai et al., 2008) (Sporothrix schenckii): 12 µg/mL (≈ 28.1 µM)
- MIC (Shai et al., 2008) (Microsporum canis): 16 µg/mL (≈ 37.5 µM)
- CC50 at 5 days (in vitro; mouse fibroblast cells, MTT, 5 days): 0.00148 µg/mL (≈ 0.00347 µM)
- cytotoxic LC50 (Shai et al., 2008) [6]: 89.5 µg/mL

SMILES: CC1(C)CC[C@]2(C)CC[C@]3(C)C(CCC4C5(C)CCC(O)C(C)(C)C5CC[C@]43C)C2C1 (stereo partly drawn) [Compound 1.2, β-amyrin]
- MIC [1, 10]: 4 µg/mL (≈ 9.33 µM)
